Laboratory results as given in patent publication US8188312B2, “Acyclic sulfamide derivatives” (Fundacion Imabis. Instituto Mediterraneo para el Avance de …, priority 2006, dated 2012).
Entries after “also recorded” stand apart in the source; their conditions may differ. One block for each compound: values may come before it.

Assays:
human PPARα = molecular target: T1, human PPARα (Homo sapiens, UniProt Q07869); assay: Luciferase reporter gene assay (RGA) in transfected MCF-7 cells; type: cell-based; settings: for induction of luciferase activity with overexpression of TIF2: TIF2 cotransfected, 1 μM; for induction of luciferase activity with overexpression of TIF2 / induction of the basal level of PPARα on the PPRE (relative luciferase activity): MCF-7 cells, 16 h; for induction of the basal level of PPARα on the PPRE (relative luciferase activity): endogenous coregulator levels, 10 μM WY14643, 1 μM OEA and analogs; for activation of PPARα (receptor-mediated transcription): summary statement
T1 construct: expressed in transfected cells; host or cells: MCF-7 human breast cancer cells, transiently transfected (DOTAP)
T1 sequence (Q07869 1-468): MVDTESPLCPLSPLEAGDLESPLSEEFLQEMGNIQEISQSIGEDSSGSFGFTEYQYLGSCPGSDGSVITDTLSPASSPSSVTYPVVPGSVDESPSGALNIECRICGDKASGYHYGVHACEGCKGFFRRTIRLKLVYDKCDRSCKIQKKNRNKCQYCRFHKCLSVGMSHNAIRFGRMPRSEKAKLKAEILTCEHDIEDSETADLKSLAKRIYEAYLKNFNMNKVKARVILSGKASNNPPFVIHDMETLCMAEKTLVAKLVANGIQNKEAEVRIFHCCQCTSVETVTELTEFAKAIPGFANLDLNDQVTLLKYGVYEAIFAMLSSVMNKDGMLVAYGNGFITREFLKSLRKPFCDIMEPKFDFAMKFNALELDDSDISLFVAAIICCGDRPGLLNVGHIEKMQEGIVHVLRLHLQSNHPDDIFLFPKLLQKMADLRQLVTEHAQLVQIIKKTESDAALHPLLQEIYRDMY
Experimental: FIG. 2: Agonistic action of OEA and analogs. Luciferase reporter gene assays were performed with extracts from MCF-7 cells that were transiently transfected with a luciferase reporter construct containing three copies of the human ACO of PPRE. (A) Wild type human PPARα expression vector was also cotransfected as indicated. Cells were treated for 16 h with solvent (DMSO), and different concentrations (*10^−8, *10^−7, **10^−6 and **10^−5 M) of OEA, compound 2, or *10^−7, **10^−6 and **10^−5 M of anandamide (AEA, used as a negative control), 7 (*10^−8, *10^−7, **10^−6 and **10^−5 M) and 12 (*10^−7, **10^−6 and **10^−5 M). (*p<0.05, (**) p<0.01 vs vehicle, #p<0.01 vs vehicle and without ACO) (B) Wild type human PPARα expression as well as plasmids coding full length TIF2 were also cotransfected as indicated. Cells were treated for 16 h with solvent (DMSO), 10 μM WY14643, 1 μM OEA and its analogs 2, 7 and 12. Relative luciferase activities were measured in reference to solvent-induced cells not overexpressing any protein. Columns represent the mean of at least three experiments and bars indicate SD. (*p<0.01 vs vehicle, #p<0.01 vs vehicle and without TIF2).
Breast cancer human cells MCF-7 were seeded in a 6-well culture plate (10^5 cells/mL) and cultured in a Dulbecco modified Eagle medium (DMEM) free from phenol red, supplied with 5% of fetal bovine serum (FBS) treated with carbon (Macias-Gonzalez, M et al. Mol. End. 17 (2003): 2028).
The liposomes with DNA plasmids were obtained by incubation of 1 μg of the reporter plasmid with luciferase and the wild type human PPAR-α expression vector with 10 μg of N-1-(2,3-dioleyloxi)-propyl-N,N,N-trimethylammonium (DOTAP from Roche Diagnostics) for 15 minutes at room temperature in a total volume of 100 μL. After the dilution with 900 μL of DMEM free from phenol red, the liposomes were added to the cells. 4-5 h after the transfection of the cells, the DMEM free from phenol red supplemented with 500 μL of FBS treated with carbon at 15% was added, in this case with the PPAR-α ligands (OEA, AEA and sulfamides derivatives) or control solvents (DMSO) at different concentrations of 10^−8, 10^−7, 10^−6 and 10^−5 M.
The cells were lysed 16 hours after the beginning of the stimulation with the reporter gene lysis buffer (Roche Diagnostics) and the reporter gene assay or RGA luciferase of constant luminous signal was carried out following the manufactures recommendations (Roche Diagnostics). The luciferase activities were standardized with regard to the protein concentration and the induction factors were calculated as the ratio of luciferase activity of ligand stimulated cells in relation to the solvent controls (Vaisanen, S. et al. Mol. Pharmacol. 62 (2002):788).

[1] = Food intake study: acute treatment in food-deprived rats; type: in vivo, male Wistar rats; settings: i.p., rats food-deprived 24 h; 30, 60, 120 and 240 min
Experimental: FIG. 3: Activity of OEA analogs as feeding suppressants. Food intake in food-deprived animals was tested 30, 60, 120 and 240 min after the i.p injection of the different compounds synthesized at different doses. Here we show results for compounds 2 (A), 7 (B), 12 (C), 19 (D) and 20 (E). […] Results are means±SEM of at least three determinations per group. (*) p<0.05, (**) p<0.01, (***) p<0.001, versus vehicle, ANOVA.
The effects of the different compounds on feeding behaviour were analyzed in male Wistar rats deprived of food for 24 hours, which were accustomed to its manipulation (Navarro, M et al. 1996 J. Neurochem. 67 (1996):1982. Rodriguez de Fonseca, F. et al. Nature 414 (2001):209. Fu, J et al. Nature, 425 (2003):90). For this aim, 48 hours before every assay rats were set out in single cages, the base material (sand or sawdust) was removed and little food containers were set out into the cage for 4 hours. After this initial phase, animals were deprived of food for 24 hours, always with free access to water. After 24 hours of fast, different treatment groups were established (N=8-10 every group) and different doses of the sulfamide corresponding to each experimental session were administrated i.p. in their vehicle solution in a volume of 1 mL/kg, as well as a control group only treated with the vehicle: • 1) Group treated with a 0.03 mg/kg dose of the sulfamide in vehicle solution. • 2) Group treated with a […] dose of the sulfamide in vehicle. • 3) Group with a 3 mg/kg dose of the corresponding sulfamide in vehicle. • 4) Control group treated with the vehicle tween-80 at 5% in physiological serum.
15 minutes after the administration, the containers with a known food amount (normally 30-40 g) and a bottle of fresh water were placed. These containers were weighted 30, 60, 120 and 240 minutes after their presentation, so that the food ingested by each animal was controlled.

[2] = Food intake studies: chronic treatment, body weight and plasma triglycerides; type: in vivo, male Wistar rats
Experimental: (§1) FIG. 4: Effects of chronic treatment with 7 (N-octadecyl-N′-propylsulfamide) on body weight gain and plasma triglycerides. […] Results are means±SEM of at least three determinations per group. (*) p<0.05, versus vehicle, ANOVA.
A chronic treatment with the compounds was carried out using male Wistar rats which were accustomed to its manipulation.
For this aim, rats were set out in single cages keeping the base material (sand or sawdust). After an adaptation phase to the conditions of the husbandry where the assay was carried out, three different groups (N=8 every group) were established according to the received treatment: • 1) Group treated with example 6 in its vehicle solution with a 1 mg/kg dose. • 2) Group treated with tween-80 vehicle at 5% in physiological serum. • 3) Control group treated with physiological serum.
The total duration of the experiment was eight days, with two i.p. daily administrations (injected volume of 1 mL/kg) of the different solutions with an interval of 12 hours between both injections. Everyday and previously to the administration at 8:00, each animal was weighted. During the total time of the assay, the single weight of each animal and the biochemical parameters in serum were daily controlled.

[3] = Subchronic treatment in genetically obese Zucker rats; type: in vivo; settings: 11 days, 1 mg/kg i.p. daily
From the text: as §1
To further explore the anti-obesity properties of this compound, we used an additional animal model of obesity.

[4] = cited from earlier work
[5] = 8 days, 1 mg/kg i.p., normal rats, vs vehicle, 1 mg/kg

Structure (SMILES): CCCNS(=O)(=O)NC12CC3CC(CC(C3)C1)C2 [Compound 12, N-propyl-N′-adamantylsulfamide]
induction of luciferase activity with overexpression of TIF2 (human PPARα): did not provide significantly higher induction
induction of the basal level of PPARα on the PPRE (relative luciferase activity) (human PPARα): did not provide induction
activation of PPARα (receptor-mediated transcription) (human PPARα): neither activates PPARα
food intake / feeding behaviour [1]: nor suppress food intake

Structure (SMILES): CCCCCCCCCCCCCCCCCCNS(=O)(=O)NCCC [Compound 7, N-octadecyl-N′-propylsulfamide]
induction of the basal level of PPARα on the PPRE (relative luciferase activity) (human PPARα): ~6 times
activation of PPARα (receptor-mediated transcription) (human PPARα): potent activator of PPARα
food intake / feeding behaviour [1]: potent feeding suppressant
body weight [2, 5]: reduces body weight
plasma triglycerides [2, 5]: marked reduction in plasma triglycerides; also recorded: reduces
active dose ([2]; i.p.): 1 mg/kg
food intake [3]: reduced
body weight gain (cumulative relative weight gain) ([3]; 1 mg/kg): reduced body weight gain; also recorded: reduces cumulative relative weight gain
melting point: 110 to 112 °C

Structure (SMILES): Cc1cccc(Nc2cc(Cl)nc(SCC(=O)O)n2)c1C [WY14643, reference compound]
induction of the basal level of PPARα on the PPRE (relative luciferase activity) (human PPARα): ~6 times

Structure (SMILES): CCCCCCCC/C=C\CCCCCCCCNS(=O)(=O)NCCC
melting point: 82 to 83 °C

Structure (SMILES): CCCCCCCC/C=C\CCCCCCCC(=O)NCCO [OEA]
induction of the basal level of PPARα on the PPRE (relative luciferase activity) (human PPARα): ~6 times
dose at which hypolipemiant effects are present ([4]; described in the literature): greater than 5 mg/kg
food intake (literature finding) ([4]; through activation of the nuclear receptor PPARα): decrease food intake

Now from value to compound, other results behind:

melting point: 68 to 70 °C
Structure (SMILES): CCCCCCCC/C=C\CCCCCCCCNS(N)(=O)=O [Compound 1, N-(cis-9-octadecenyl)sulfamide]

melting point: 99 to 101 °C
Structure (SMILES): CCCCCCCCCCCCCCNS(N)(=O)=O [Compound 4, N-tetradecylsulfamide]

melting point: 105 to 107 °C
Structure (SMILES): CCCCCCCCCCCCCCNS(=O)(=O)NCCC [Compound 9, N-propyl-N′-tetradecylsulfamide]

melting point: 108 to 110 °C
Structure (SMILES): CCCCCCCCCCCCCCCCNS(=O)(=O)NCCC [Compound 8, N-hexadecyl-N′-propylsulfamide]

induction of the basal level of PPARα on the PPRE (relative luciferase activity) (human PPARα): did not provide induction
melting point: 105 to 107 °C
Structure (SMILES): CCCCCCCCCCCCCCCCCCNS(N)(=O)=O [Compound 2, N-octadecylsulfamide]
induction of luciferase activity with overexpression of TIF2 (human PPARα): did not provide significantly higher induction
activation of PPARα (receptor-mediated transcription) (human PPARα): did not activate PPAR receptor-mediated transcription; also recorded: does not activate PPARα
food intake / feeding behaviour [1]: clearly reduced food intake; also recorded: reduces feeding behaviour

melting point: 102 to 104 °C
Structure (SMILES): CCCCCCCCCCCCCCCCNS(N)(=O)=O [Compound 3, N-hexadecylsulfamide]
